Where two headings read alike, the source gives them in different places.
Legend:
ZIKV (PAN2016) = experiment: Time-of-addition experiment, ZIKV PAN2016 in Vero E6 cells; format: cell-based, Zika virus (ZIKV); details: for inhibition at 7.5 µM: Zika virus, Vero C1008, 1 h
[1] = test system: ZIKV mosquito strain MEX 2–81; experiment: Plaque reduction inhibition assay, ZIKV MEX 2–81 in Vero E6 cells; format: cell-based; details: Zika virus, Vero C1008; plaque reduction, Vero E6 cells; read-out: IC50 MEX 2–81
Vero E6 cells [2] = experiment: Combinatorial cytotoxicity of gossypol with other natural products, CCK8; details: Vero E6; for Fold of Enhancement of cytotoxicity (natural product with gossypol): (CC50 alone)/(CC50 in the mixture)—1
[3] = as above; details: African green monkey
ZIKV strain PRVABC59 [4] = format: cell-based, Zika virus (ZIKV)
[5] = target: ZIKV full-length E protein (Zika virus, UniProt A0A024B7W1); format: binding; details: ELISA
ZIKV full-length E protein, sequence (A0A024B7W1 291-794): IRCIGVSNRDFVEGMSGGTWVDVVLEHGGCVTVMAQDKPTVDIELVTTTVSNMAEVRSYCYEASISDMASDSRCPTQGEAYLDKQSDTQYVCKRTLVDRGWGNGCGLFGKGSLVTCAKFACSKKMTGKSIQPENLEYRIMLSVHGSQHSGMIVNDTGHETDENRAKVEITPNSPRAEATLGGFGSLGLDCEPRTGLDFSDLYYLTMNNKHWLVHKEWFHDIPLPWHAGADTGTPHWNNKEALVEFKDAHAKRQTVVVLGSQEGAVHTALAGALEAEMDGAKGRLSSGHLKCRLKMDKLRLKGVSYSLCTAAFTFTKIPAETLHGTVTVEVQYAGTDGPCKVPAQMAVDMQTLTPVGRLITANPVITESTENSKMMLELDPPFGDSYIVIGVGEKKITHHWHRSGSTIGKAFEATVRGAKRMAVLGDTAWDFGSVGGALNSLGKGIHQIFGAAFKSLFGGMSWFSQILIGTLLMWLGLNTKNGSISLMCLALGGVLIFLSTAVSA

ZIKV strain R116265 = experiment: Plaque reduction inhibition assay, ZIKV R116265 in Vero E6 cells; format: cell-based; details: Zika virus, Vero C1008
DENV-1-V1792 = experiment: Plaque reduction inhibition assay, DENV-1 in LLC-MK2 cells; format: cell-based; details: Dengue virus, DENV1
DENV-4-PR 06-65-740 = experiment: Plaque reduction inhibition assay, DENV-4 in LLC-MK2 cells; format: cell-based; details: Dengue virus, DENV4
[6] = target: T1, ZIKV envelope protein domain III (EDIII) protein (Zika virus, UniProt A0A024B7W1); format: binding; details: ELISA
T1 construct: E residues 298–409 fused with a C-terminal human Fc; made in house
T1 sequence (A0A024B7W1 588-699): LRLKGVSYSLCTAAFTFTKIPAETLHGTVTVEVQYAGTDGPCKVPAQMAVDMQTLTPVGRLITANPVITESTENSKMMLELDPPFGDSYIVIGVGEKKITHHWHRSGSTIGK

in vitro [7] = details: African green monkey
DENV-2-V594 = experiment: Plaque reduction inhibition assay, DENV-2 in LLC-MK2 cells; format: cell-based; details: Dengue virus, DENV2
in vitro [8] = details: rhesus monkey
ZIKV strain FLR [9] = experiment: Plaque reduction inhibition assay, ZIKV FLR in Vero E6 cells; format: cell-based; details: Zika virus, Vero C1008; plaque reduction, Vero E6 cells; read-out: IC50 FLR
ZIKV strain PAN2016 [10] = experiment: Plaque reduction inhibition assay, ZIKV PAN2016 in Vero E6 cells; format: cell-based; details: Zika virus, Vero C1008, Vero E6 cells
ZIKV strain FLR [11] = format: cell-based, Zika virus (ZIKV); details: ZIKV FLR
ZIKV strain PRVABC59 [12] = experiment: Plaque reduction inhibition assay, ZIKV PRVABC59 in Vero E6 cells; format: cell-based; details: Zika virus, Vero C1008; plaque reduction, Vero E6 cells
ZIKV strain R103451 = experiment: Plaque reduction inhibition assay, ZIKV R103451 in Vero E6 cells; format: cell-based; details: Zika virus, Vero C1008; plaque reduction, Vero E6 cells; read-out: IC50 R103451
[13] = test system: ZIKV rhesus macaque strain MR 766; experiment: Plaque reduction inhibition assay, ZIKV MR 766 in Vero E6 cells; format: cell-based; details: Zika virus, Vero C1008, in Macaca mulatta; plaque reduction, Vero E6 cells; read-out: IC50 MR 766
ZIKV strain PAN2015 = experiment: Plaque reduction inhibition assay, ZIKV PAN2015 in Vero E6 cells; format: cell-based; details: Zika virus, Vero C1008
ZIKV strain PLCal_ZV = experiment: Plaque reduction inhibition assay, ZIKV PLCal_ZV in Vero E6 cells; format: cell-based; details: Zika virus, Vero C1008; plaque reduction, Vero E6 cells; read-out: IC50 PLCal_ZV
Vero E6 cells [14] = experiment: Initial screening: cytotoxicity observed under a microscope; details: initial screening at 20 µM
ZIKV strain PAN2016 [15] = format: cell-based, Zika virus (ZIKV)
DENV-3-V1043 = experiment: Plaque reduction inhibition assay, DENV-3 in LLC-MK2 cells; format: cell-based; details: Dengue virus, DENV3

SMILES: C[C@@H]1CC[C@@]2(OC1)O[C@H]1[C@@H](O)[C@H]3[C@@H]4CC[C@H]5C[C@@H](O[C@@H]6O[C@H](CO)[C@H](O[C@@H]7O[C@H](CO)[C@@H](O)[C@H](O[C@@H]8OC[C@@H](O)[C@H](O)[C@H]8O)[C@H]7O[C@@H]7O[C@H](CO)[C@H](O)[C@H](O[C@@H]8O[C@H](CO)[C@@H](O)[C@H](O)[C@H]8O)[C@H]7O)[C@H](O)[C@H]6O)[C@H](O)C[C@]5(C)[C@H]4CC[C@]3(C)[C@H]1[C@@H]2C [Digitonin, digitonin]
- inhibition at 7.5 µM (ZIKV (PAN2016); read-out: inhibition of ZIKV infection, step c: cotreatment at 4 °C (attachment)): 49 to 74%
- inhibition at 7.5 µM (ZIKV (PAN2016); read-out: inhibition of ZIKV infection, step d: cotreatment at 37 °C): ≥ 94%
- inhibition at 7.5 µM (ZIKV (PAN2016); read-out: inhibition of ZIKV infection, step e: penetration (membrane fusion)): 49 to 74%
- inhibition at 7.5 µM (ZIKV (PAN2016); read-out: inhibition of ZIKV infection, step f: postentry stage): 49 to 74%
- inhibition of ZIKV infection, step a: pretreatment of ZIKV (ZIKV (PAN2016); natural product with ZIKV 37 °C 1 h before cells, gossypol 15 µM, curcumin 30 µM, digitonin 7.5 µM, conessine 30 µM): no effect
- IC50 [1]: 3.84 ± 0.12 µM
- Fold of Enhancement of cytotoxicity (natural product with gossypol) (Vero E6 cells [2]): 2.60
- Fold of Enhancement of cytotoxicity (natural product with gossypol) (Vero E6 cells [2]; listed as digitonin): about 2.60
- CI (combination index, cytotoxicity) of gossypol with the named natural product (Vero E6 cells [2]; based on CC50): 1.36
- CC50 at 3 days [3]: 50.63 ± 0.22 µM
- Fold of Enhancement (natural product with gossypol) (ZIKV strain PRVABC59 [4]; ZIKV PRVABC59, (IC50 alone)/(IC50 in the mixture)—1): 5.98
- CI (combination index) of gossypol with the named natural product (ZIKV strain PRVABC59 [4]; ZIKV PRVABC59, CI < 1 synergy): 0.29
- IC50 (ZIKV strain PRVABC59 [4]; Zika virus, Vero C1008, ZIKV PRVABC59, Vero E6, natural product without combination, read-out: IC50 Alone): 3.84 ± 0.81 µM
- binding to ZIKV full-length E protein (in words) [5]: did not bind
- IC50 (ZIKV strain R116265): 6.52 ± 0.59 µM
- IC50 (DENV-1-V1792): 5.21 ± 0.35 µM
- IC50 (DENV-4-PR 06-65-740): 6.44 ± 0.34 µM
- binding to ZIKV EDIII protein (in words) [6]: did not bind
- CC50 at 3 days (in vitro [7]): 56.3 ± 1.2 µM
- IC50 (DENV-2-V594): 6.56 ± 0.21 µM
- CC50 at 3 days (in vitro [8]): 59.02 ± 0.33 µM
- IC50 (ZIKV strain FLR [9]): 3.34 ± 0.22 µM
- IC90 (ZIKV strain PAN2016 [10]; 90% plaque reduction, read-out: IC90 against ZIKV PAN2016 strain): ~7.91 µM
- IC50 (ZIKV strain PAN2016 [10]; plaque reduction, read-out: IC50 PAN2016): 4.31 ± 0.23 µM
- CI (combination index) of gossypol with the named natural product (ZIKV strain FLR [11]; CI < 1 synergy): 0.95
- IC50 (ZIKV strain FLR [11]; Zika virus, Vero C1008, Vero E6, natural product without combination, read-out: IC50 Alone): 3.86 ± 0.02 µM
- IC50 (ZIKV strain PRVABC59 [12]): 3.76 ± 1.12 µM
- IC50 (ZIKV strain R103451): 4.3 ± 0.43 µM
- IC50 [13]: 3.77 ± 0.31 µM
- IC50 (ZIKV strain PAN2015): 5 ± 0.01 µM
- IC50 (ZIKV strain PLCal_ZV): 3.19 ± 0.25 µM
- cytotoxicity in Vero E6 cells observed under a microscope (Vero E6 cells [14]): no obvious cytotoxicity
- Fold of Enhancement (natural product with gossypol) (ZIKV strain PAN2016 [15]; ZIKV PAN2016, (IC50 alone)/(IC50 in the mixture)—1): 2.21
- CI (combination index) of gossypol with the named natural product (ZIKV strain PAN2016 [15]; ZIKV PAN2016, CI < 1 synergy): 0.60
- IC50 (ZIKV strain PAN2016 [15]; Zika virus, Vero C1008, ZIKV PAN2016, Vero E6, natural product without combination, read-out: IC50 Alone): 4.85 ± 0.24 µM
- IC50 (DENV-3-V1043): 4.07 ± 0.83 µM
